Source: US9913812B2, “Methods for the treatment of skin neoplasms” (TEIKOKU PHARMA USA, INC., priority 2011, dated 2018)
“Also recorded” adds a separate entry of the source. Like-named read-outs stand apart in the source and are kept apart here.

Columns and labels:
[1] = system: SKMEL28 human melanoma cell line; test: SKMEL28 melanoma xenograft tumor volume / growth in athymic mice; conditions: for tumor growth rates (in words) / tumor volume / tumor growth on the last day of the experiment (in words): compared to the no treatment group
From the text: The SKMEL28 human melanoma cell line was obtained from ATCC and grown according to the vendor's instructions until a log growth phase was obtained. The cells were harvested from the culture vessel, washed once and re-suspended in serum free medium and matrigel mixed at a 1:1 ratio.
Female athymic (nu/nu) mice were used for in vivo animal studies. The mice were 7-8 weeks old at the time of tumor implantation. Six groups of mice were included in the study, with 10 animals in each group.
Mice were inoculated subcutaneously in the scapular area in a volume of 0.2 mL containing ˜10×10^6 SKMEL28 cells.
Tumor dimensions were measured twice a week with digital calipers and tumor volumes were calculated from the dimensions with the formula: Tumor Volume (m)=(a^2×b/2); where “a” was the smallest dimension and “b” was the largest dimension. […] Test article treatment was initiated on the same day as assignment to treatment groups. Tumor dimensions were measured and tumor volumes calculated every three days (at the same time as patch removal and application) for 21 days. Tumor volumes were also transformed into percent change in tumor volume using the formula: Percent Change TV=(TVi−TVo)/TVo×100%; where TV was tumor volume, TVi was the tumor volume at the measurement time and TVo was the initial tumor volume. Differences between treatment groups for both the raw tumor volumes and percent changes in tumor volume versus time data sets were evaluated with Two-way ANOVAs. Pair-wise differences between the no treatment and test article treatment groups on each measurement day were evaluated with post hoc Bonferroni's T-tests. In order to evaluate the growth rates of the tumors between treatments, straight lines were fitted through the different data sets (percent change in tumor volumes versus time) by least squares regression. Slopes of the lines were compared initially between all groups and then in a pair-wise fashion between the “no treatment” and “test article” treated groups using an F-test. In all cases, P values less than 0.05 were considered significant.
Test article administrations were initiated on the same day as treatment group assignments and according to the Experimental Grouping Table. Rasagiline administration consisted of either oral gavage (15 mg/kg PO, daily for 21 days) or topical transdermal patch treatment. Cisplatin was administered once-weekly via intraperitoneal injection. Transdermal patches were applied to the intrascapular (i.e., directly over the tumor) and chest areas and maintained in position with a single BandAid™. Fresh patches were applied to the same locations every third day. The skin was cleaned prior to the first patch application with clorehexadene and as necessary prior to repeat applications. […] Mice were conscious and lightly restrained for patch removal and application. The patches were 0.75 or 1.2 in^2.

[2] = Body weights of tumor-bearing mice during treatment; format: in vivo; conditions: for Difference in body weight (BW), Vehicle vs. Rasagiline PO / Difference in percent change in body weight (% BW), Vehicle vs. Rasagiline PO: 15 mg/kg PO daily
Experimental: Body weights were measured prior to dosing and every three days concurrent with tumor measurements for both patch removal/application and oral dosing. Body weights were transformed into percent change in body weight using the formula: […] […] Cisplatin was administered once-weekly via intraperitoneal injection.

[3] = Survival / mortality of tumor-bearing mice during treatment; format: in vivo
Experimental: The percentage of animal mortality and time of death was recorded for every group in the study. Animals were defined as moribund and euthanized if one or more of the following criteria were met: prolonged or excessive pain or distress as defined by clinical observations such as: prostration, hunched posture, paralysis/paresis, distended abdomen, ulcerations, abscesses, seizures and/or hemorrhages; loss of more than 20% of their body weight; if the tumor volumes exceeded 2,000 mm^3 or the tumors ulcerated, bled or produced exudates.
Survival of the animals was recorded for the entire experiment. If an animal died or was euthanized due to morbidity during the experiment, its day of death was designated as “1”. If an animal survived the entire time course of the experiment, the last day of observation was designated as a “0”. Survival data was analyzed using a Kaplan-Meier Survival analysis and survival curves were compared using a Log-rank test. P values less than 0.05 were considered significant.

[4] = oral administration (0.45 mg/kg), cited from earlier work
[5] = in vivo; conditions: athymic nude, mouse, po, 15 mg/kg
Experimental: At the end of the 21-day treatment duration, 2 animals from each group were euthanized at each of the following time points by isoflurane inhalation (0.5, 1, 2, 4, 8, and 24 hours after the last administration of the test articles including the application of fresh transdermal patches). For the 15 mg/kg PO Rasagiline group, two mice were bled twice (cheek bleed and terminal cardiac) so that ten mice could supply blood samples for six time points. Blood samples were collected from these animals via cardiac puncture into blood collection tubes containing lithium heparin. The blood samples were processed within 30 minutes of collection by centrifugation to prepare plasma samples. The plasma was separated from the cellular fraction and frozen on dry ice. Plasma samples were stored at −80° C. until they were shipped to an analytical laboratory designated by the Sponsor.
To compare rasagiline exposure by both dosing routes, blood was collected from two animals at each time point by sparse sampling techniques via cardiocentesis prior to euthanasia. Two samples were collected each from two animals in the oral dose group by collecting the first sample from the submandibular vein at 0.25 hours and cardiocentesis at eight hours. Blood was collected from animals administered oral rasagiline at 0.25, 0.5, 1, 2, 4 and 8 hours after the last oral dose. Animals administered the transdermal patches had blood collected at 0.5, 1, 2, 4, and 24 hours on the last application day. Blood collected from animals in the naïve, vehicle, and placebo patch groups determined baseline values and were used for pre-dose levels. […] Mean values for each time point within the rasagiline groups were used to calculate the mean AUC(0-t) value. The AUC(0-8) derived for the oral rasagiline group was multiplied by three to estimate the AUC(0-24) exposure. The ratio of AUC(0-24) for each of the baseline transdermal groups was divided by the estimated oral AUC(0-24) to compare exposures between the two dosing routes.

[6] = oral gavage 15 mg/kg, listed as rasagiline mesylate, 15 mg/kg
[7] = oral gavage 15 mg/kg, listed as rasagiline, 15 mg/kg

N.N.[Cl][Pt][Cl] [Cisplatin]
SLOPE, best-fit value of linear fit to percent changes in tumor volume versus time ([1]; 10 mg/kg IP every 7 days): 13.16
tumor growth rates (in words) ([1]; 10 mg/kg IP): significantly slowed; also recorded: significantly reduced tumor growth rates
reduction in the percent change in tumor volumes ([1]; 10 mg/kg IP, compared to the oral vehicle treatment, prior to death of the majority of the animals): 49%
body weight loss (in words) ([2]; 10 mg/kg IP, versus any other treatment group): greater body weight loss
survival versus No Treatment group (Logrank test; in words) ([3]; 10 mg/kg IP every 7 days): Yes
animals that died ([3]; 10 mg/kg IP every 7 days, group of 10, deaths on Days 13-17): 7 out of the 10

C#CCNC1CCc2ccccc21 (stereo not shown) [Rasagiline, N-propargyl-1-aminoindan]
SLOPE, best-fit value of linear fit to percent changes in tumor volume versus time ([1]; 15 mg/kg PO daily, 21 days): 26.64
Difference in percent change in tumor volume (% TV), Vehicle vs. Rasagiline 15 mg/kg PO ([1]; Day 1, 15 mg/kg PO daily): 0.0000%
Difference in tumor volume (TV), Vehicle vs. Rasagiline (15 mg/kg PO) ([1]; Day 1, 15 mg/kg PO daily): −0.2606
Difference in percent change in tumor volume (% TV), Vehicle vs. Rasagiline 15 mg/kg PO ([1]; Day 4, 15 mg/kg PO daily): −12.56%
Difference in tumor volume (TV), Vehicle vs. Rasagiline (15 mg/kg PO) ([1]; Day 4, 15 mg/kg PO daily): −15.03
Difference in percent change in tumor volume (% TV), Vehicle vs. Rasagiline 15 mg/kg PO ([1]; Day 7, 15 mg/kg PO daily): −36.19%
Difference in tumor volume (TV), Vehicle vs. Rasagiline (15 mg/kg PO) ([1]; Day 7, 15 mg/kg PO daily): −40.95
Difference in percent change in tumor volume (% TV), Vehicle vs. Rasagiline 15 mg/kg PO ([1]; Day 10, 15 mg/kg PO daily): −42.92%
Difference in tumor volume (TV), Vehicle vs. Rasagiline (15 mg/kg PO) ([1]; Day 10, 15 mg/kg PO daily): −50.83
Difference in percent change in tumor volume (% TV), Vehicle vs. Rasagiline 15 mg/kg PO ([1]; Day 13, 15 mg/kg PO daily): −71.82%
Difference in tumor volume (TV), Vehicle vs. Rasagiline (15 mg/kg PO) ([1]; Day 13, 15 mg/kg PO daily): −92.36
Difference in percent change in tumor volume (% TV), Vehicle vs. Rasagiline 15 mg/kg PO ([1]; Day 16, 15 mg/kg PO daily): −98.35%
Difference in tumor volume (TV), Vehicle vs. Rasagiline (15 mg/kg PO) ([1]; Day 16, 15 mg/kg PO daily): −128.8
Difference in percent change in tumor volume (% TV), Vehicle vs. Rasagiline 15 mg/kg PO ([1]; Day 22, 15 mg/kg PO daily): −153.3%
Difference in tumor volume (TV), Vehicle vs. Rasagiline (15 mg/kg PO) ([1]; Day 22, 15 mg/kg PO daily): −154.4
tumor volume / tumor growth on the last day of the experiment (in words) ([1]; oral gavage 15 mg/kg, 15 mg/kg): significantly reduced tumor volume
tumor growth rates (in words) [1, 6]: significantly reduced absolute tumor volumes as well as tumor growth rates
tumor volume / tumor growth on the last day of the experiment (in words) [1, 6]: significantly reduced absolute tumor volumes
tumor growth rates (in words) [1, 7]: significantly slowed; also recorded: significantly reduced tumor growth rates
tumor volume / tumor growth on the last day of the experiment (in words) [1, 7]: significant reductions in tumor growth
reduction in percent change in tumor volume ([1]; oral gavage 15 mg/kg, compared to the oral vehicle control): 22%
tumor growth rates (in words) ([1]; transdermal patch): significantly reduced absolute tumor volumes as well as tumor growth rates
tumor volume / tumor growth on the last day of the experiment (in words) ([1]; transdermal patch): significantly reduced absolute tumor volumes
Difference in body weight (BW), Vehicle vs. Rasagiline PO ([2]; Day 1): 0.4100
Difference in percent change in body weight (% BW), Vehicle vs. Rasagiline PO ([2]; Day 1): 0.0000%
Difference in body weight (BW), Vehicle vs. Rasagiline PO ([2]; Day 4): −0.1100
Difference in percent change in body weight (% BW), Vehicle vs. Rasagiline PO ([2]; Day 4): −2.229%
Difference in body weight (BW), Vehicle vs. Rasagiline PO ([2]; Day 7): 0.2200
Difference in percent change in body weight (% BW), Vehicle vs. Rasagiline PO ([2]; Day 7): −0.7052%
Difference in body weight (BW), Vehicle vs. Rasagiline PO ([2]; Day 10): 0.3400
Difference in percent change in body weight (% BW), Vehicle vs. Rasagiline PO ([2]; Day 10): −0.2490%
Difference in body weight (BW), Vehicle vs. Rasagiline PO ([2]; Day 13): 0.1700
Difference in percent change in body weight (% BW), Vehicle vs. Rasagiline PO ([2]; Day 13): −1.053%
Difference in body weight (BW), Vehicle vs. Rasagiline PO ([2]; Day 16): 0.2800
Difference in percent change in body weight (% BW), Vehicle vs. Rasagiline PO ([2]; Day 16): −0.4240%
Difference in body weight (BW), Vehicle vs. Rasagiline PO ([2]; Day 22): −0.5500
Difference in percent change in body weight (% BW), Vehicle vs. Rasagiline PO ([2]; Day 22): −4.072%
percent change in body weight (in words) ([2]; oral 15 mg/kg daily, compared with the no treatment group, 15 mg/kg): steadily reduced body weight from day 13 onwards
survival (in words) ([3]; orally or transdermally, 21 days): survived to the end of the study; also recorded: survived the dosing period
Maximum % of dose ([4]; Fat): 8.47 % of dose
Time to maximal exposure ([4]; Fat): 0.25
Maximum % of dose ([4]; Kidneys): 3.89 % of dose
Time to maximal exposure ([4]; Kidneys): 0.25
Maximum % of dose ([4]; Large intestine): 1.83 % of dose
Time to maximal exposure ([4]; Large intestine): 1
Maximum % of dose ([4]; Liver): 13.20 % of dose
Time to maximal exposure ([4]; Liver): 0.25
Maximum % of dose ([4]; Lung): 1.46 % of dose
Time to maximal exposure ([4]; Lung): 0.25
Maximum % of dose ([4]; Muscle): 24.11 % of dose
Time to maximal exposure ([4]; Muscle): 0.25
Maximum % of dose ([4]; Skin): 13.20 % of dose
Time to maximal exposure ([4]; Skin): 0.25
Maximum % of dose ([4]; Small intestine): 8.76 % of dose
Time to maximal exposure ([4]; Small intestine): 0.25
Maximum % of dose ([4]; Stomach): 4.73 % of dose
Time to maximal exposure ([4]; Stomach): 0.5
Maximum % of dose ([4]; Whole Blood): 4.54 % of dose
Time to maximal exposure ([4]; Whole Blood): 0.25
Cmax [5]: 899 ng/mL
Tmax [5]: 15 min
concentration at 0.25 h [5]: 899 ng/mL
concentration at 0.5 h [5]: 370 ng/mL
concentration at 1 h [5]: 216 ng/mL
concentration at 2 h [5]: 82.5 ng/mL
concentration at 4 h [5]: 28.4 ng/mL
concentration at 8 h [5]: 19.9 ng/mL
time of mean maximal plasma concentration [5]: 15 min
AUC(0-t) ([5]; Mean AUC(0-24)): 774 ng·h/mL
AUC(0-t) ([5]; estimated exposure after 24 hours (AUC(0-8) multiplied by three)): 2320 ng·h/mL
